According to article PMC4045209, “The two common polymorphic forms of human NRH-quinone oxidoreductase 2 (NQO2) have different biochemical properties” (Febs Letters, 2014):
Read-outs that look alike come from different tables or passages of the source.

Biological target: T1, NRH-quinone oxidoreductase 2 (NQO2-F47) (Homo sapiens, UniProt P16083, L47F)
T1 sequence (P16083 1-231 L47F): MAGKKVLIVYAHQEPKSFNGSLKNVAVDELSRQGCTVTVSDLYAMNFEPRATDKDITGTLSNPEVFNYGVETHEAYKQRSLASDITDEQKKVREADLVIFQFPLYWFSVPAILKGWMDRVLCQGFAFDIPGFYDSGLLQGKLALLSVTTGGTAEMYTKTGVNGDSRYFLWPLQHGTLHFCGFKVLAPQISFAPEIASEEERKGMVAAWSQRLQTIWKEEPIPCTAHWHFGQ
Assay: thermal scanning fluorimetry KD,app (FAD fluorescence)
Assay type: binding

| Compound | Kd [mM] | Kd (read-out: Kd) [mM] |
| --- | --- | --- |
| NC(=O)c1cccnc1 [nicotinamide] | 14.4 ± 1.1 |  |
| O=c1oc2ccccc2c(O)c1Cc1c(O)c2ccccc2oc1=O [dicoumarol] |  | 0.0337 ± 0.0026 |
